Laboratory results: PMC6222422, “Synthesis and Biological Evaluation of Novel Indole-Derived Thioureas” (Molecules : A Journal of Synthetic Chemistry and Natural …, 2018)
Where two headings read alike, the source gives them in different places.

What was measured:
[1] = system: HIV-1 AZT^R strain (67N, 70R, 215F, 219Q); assay: microbe, parasite or virus in culture; type: cell-based, Human Immunodeficiency Virus type-1; settings: for EC50: Human immunodeficiency virus 1, MT4, read-out: EC50 AZT^R
[2] = system: HIV-1 MDR strain (74V, 41L, 106A, 215Y); assay: microbe, parasite or virus in culture; type: cell-based, Human Immunodeficiency Virus type-1; settings: for EC50: Human immunodeficiency virus 1, MT4, read-out: EC50 MDR
[3] = system: HIV-1 N119 (Y181C mutant); assay: microbe, parasite or virus in culture; type: cell-based, Human Immunodeficiency Virus type-1; settings: Human immunodeficiency virus 1, MT4, read-out: EC50 N119
[4] = system: HIV-1 EFV^R (K103R + V179D + P225H mutant); assay: microbe, parasite or virus in culture; type: cell-based, Human Immunodeficiency Virus type-1; settings: Human immunodeficiency virus 1, MT4, 96 h, read-out: EC50 EFV^R
HIV-1 = assay: microbe, parasite or virus in culture
[5] = system: HIV-1 A17 (K103N + Y181C mutant); assay: microbe, parasite or virus in culture; type: cell-based, Human Immunodeficiency Virus type-1; settings: for EC50: Human immunodeficiency virus 1, MT4, 96 h, read-out: EC50 A17
in vitro [6] = settings: human
in vitro [7] = settings: Syrian hamster (Mesocricetus auratus)
BVDV = assay: microbe, parasite or virus in culture; type: cell-based, bovine viral diarrhoea virus; settings: Bovine viral diarrhea virus isolates and strains, MDBK, in Bos taurus, read-out: BVDV EC50
VV = assay: microbe, parasite or virus in culture; type: cell-based; settings: Orthopoxvirus vaccinia, Vero 76, read-out: VV EC50
HSV-1 = assay: microbe, parasite or virus in culture; type: cell-based, human herpes 1; settings: Human alphaherpesvirus 1, Vero 76, read-out: HSV-1 EC50
VSV = assay: microbe, parasite or virus in culture; type: cell-based; settings: Vesicular stomatitis virus, Vero 76, read-out: VSV EC50
Reo-1 = assay: microbe, parasite or virus in culture; type: cell-based, reovirus type-1; settings: Reovirus sp., BHK, read-out: Reo-1 EC50
CV-B5 = assay: microbe, parasite or virus in culture; type: cell-based, coxsackievirus B5; settings: Enterovirus B, CVB5, Vero 76, read-out: CV-B5 EC50
Sb-1 = assay: microbe, parasite or virus in culture; type: cell-based, poliovirus type-1; settings: Enterovirus C, Vero 76, read-out: Sb-1 EC50
YFV = assay: microbe, parasite or virus in culture; type: cell-based; settings: Yellow fever virus, BHK, read-out: YFV EC50
RSV = assay: microbe, parasite or virus in culture; type: cell-based, human respiratory syncytial virus; settings: human respiratory syncytial virus, Vero 76, read-out: RSV EC50
in vitro [8] = settings: African green monkey (Cercopithecus aethiops)
in vitro [9] = settings: cattle (Bos taurus)
Cytotoxicity, MTT method [10] = settings: African green monkey (Cercopithecus aethiops)
Cytotoxicity, MTT method [11] = settings: Syrian hamster (Mesocricetus auratus)
Cytotoxicity, MTT method [12] = settings: cattle (Bos taurus)
Cytotoxicity, MTT method [13] = settings: human
[14] = Human immunodeficiency virus 1, MT4, read-out: EC50 HIV-1
[15] = Human immunodeficiency virus 1, MT4, read-out: HIV-1 EC50

SMILES | EC50 [1] [µM] | EC50 [2] [µM] | EC50 [3] [µM] | EC50 [4] [µM] | EC50 (HIV-1; [14]) [µM] | EC50 [5] [µM] | CC50 (in vitro [6]) [µM] | EC50 (BVDV) [µM] | melting point [°C] | EC50 (VV) [µM] | EC50 (HSV-1) [µM] | EC50 (VSV) [µM] | EC50 (HIV-1; [15]) [µM] | EC50 (Reo-1) [µM] | EC50 (CV-B5) [µM] | EC50 (Sb-1) [µM] | EC50 (YFV) [µM] | EC50 (RSV) [µM] | also measured
Cc1ccnc2c1NC(=O)c1cccnc1N2C1CC1 [Nevirapine] | 0.078 ± 0.008 | 5 ± 0.6 | 6.3 ± 0.05 | 100 | 0.08 ± 0.005 | 80 | > 100 |  |  |  |  |  |  |  |  |  |  |  | 
S=C(NCCc1c[nH]c2ccccc12)Nc1ccc(Br)cc1 [Compound 8, 1-(2-(1H-Indol-3-yl)ethyl)-3-(4-bromophenyl)thiourea] | 9 ± 1 | 9 ± 0.8 | > 45 | > 45 | 8.7 ± 0.8 | 12 ± 1.5 | 45 | > 52 | 156 to 158 | > 13 | > 13 | > 13 | 8.7 ± 0.4 | > 10 | > 13 | > 13 | > 10 | > 13 | activity against AZT^R strain compared with wild type (in words) [1]: comparable with those of HIV-1 wild-type; activity against MDR strain compared with wild type (in words) [2]: comparable with those of HIV-1 wild-type; CC50 (in vitro [7]): 10 µM; activity against A17 strain compared with wild type (in words) [5]: comparable with those of HIV-1 wild-type; CC50 (in vitro [8]): 13 µM; CC50 (in vitro [9]): 52 µM
COc1ccc(NC(=S)NCCc2c[nH]c3ccccc23)cc1 [Compound 2, 1-(2-(1H-Indol-3-yl)ethyl)-3-(4-methoxyphenyl)thiourea] |  |  |  |  |  |  |  | > 100 | 146 to 148 | > 56 | > 56 | > 56 | > 32 | > 44 | > 56 | > 56 | > 44 | > 56 | CC50 (Cytotoxicity, MTT method [10]): 56 µM; CC50 (Cytotoxicity, MTT method [11]): 44 µM; CC50 (Cytotoxicity, MTT method [12]): > 100 µM; CC50 (Cytotoxicity, MTT method [13]): 32 µM
